Consider one compound from patent US11826429B2, “Pharmaceutical composition comprising brinzolamide” (SENTISS PHARMA PRIVATE LIMITED, priority 2014, dated 2023).

Molecules are shown by their SMILES. ≈ marks a conversion by molar mass, not a printed value.

Data set [1] can be described thus: Solubility studies (supernatant filtered through 0.45 syringe filter and analysed). Type of data set: physicochemical. As to conditions: for Solubility % w/v, No Further addition to the ingredients of Column 2: autoclaved 121° C./30 min, cooled; for Solubility % w/v, Polysorbate 80 (1%) in addition to the composition of Column 2: plus Polysorbate 80 (1%). The procedure: Purified water was taken in Schott bottle. Brinzolamide was added with continuous stirring. After 30 min its pH was adjusted to 6. It was stirred for 24 hours. After which, the supernatant was filtered with 0.45 µm syringe filter and then its solubility was determined.
Purified water was taken in Schott bottle. Brinzolamide was added with continuous stirring. After 30 min its pH was adjusted to 6 and was autoclaved at 121° C./30 min. After autoclaving the sample was cooled to room temperature. It was stirred for 24 hours. After which, the supernatant was filtered with 0.45 µm syringe filter and then its solubility was determined.
Purified water is taken in Schott bottle. Soluplus® is added to it while stirring for 10-15 min. Polysorbate 80 is added to it while stirring for 10-20 min. After it has dissolved completely Brinzolamide is added with continuous stirring. After 30 min pH is checked and adjusted to 6 with 0.1 N NaOH. It is autoclaved at 121° C./30 min. After autoclaving the formulation is cooled to room temperature with stirring.
In order to determine the solubility the sample was centrifuged at 3500 rpm for 5 min followed by filtration through 0.45 µm syringe filter and analysis.

For data set [2] the following is noted: pH 6.25; cited from earlier work.

`CCN[C@H]1CN(CCCOC)S(=O)(=O)c2sc(S(N)(=O)=O)cc21` [brinzolamide, (R)-(+)-4-ethylamino-2-(3-methoxypropyl)-3,4-dihydro-2H-thieno[3,2-e]-1,2-thiazine-6-sulfonamide-1,1-dioxide]: in data set [1] (pH 6.0), the “Solubility when API is autoclaved and cooled” value was determined as 0.082%. For the same compound, the “Solubility % w/v, No Further addition to the ingredients of Column 2” value was 0.085 % w/v in data set [1] (pH 6) and 0.0822 % w/v in data set [1] (pH 6, listed as Autoclaved API). Further, the “Solubility % w/v, PEG 400 (5%) in addition to the composition of Column 2” value in data set [1] (pH 6, autoclaved, plus PEG 400 (5%)) worked out at 0.0668 % w/v. Besides, the “Solubility % w/v, Polysorbate 80 (1%) in addition to the composition of Column 2” value turned out to be 0.2 % w/v in data set [1] (pH 6, autoclaved) and 0.2089 % w/v in data set [1] (pH 6, autoclaved, listed as Autoclaved API). For the same compound, the solubility thermodynamic at 24 h in data set [1] (purified water, pH adjusted to 6, aqueous buffer, thermodynamic from solid, pH 6.0, not autoclaved, stirred 24 hours, read-out: Solubility determined in the lab) was found to be 545 µg/mL (≈ 1420 µM). For the same compound, the “Solubility as per literature” value in data set [2] is 0.059 % w/v.
